Assay results reported in patent US20070071773A1, “Compositions and methods for the treatment and prophylaxis of infections caused by gram positive bacteria” (priority 2002, published 2007).
“Also recorded” adds a separate entry of the source.

How the values were obtained:
GAS strain JS95 = assay: Bacterial growth inhibition (disks on blood-agar plate; THY medium); assay type: cell-based, Group A Streptococcus (GAS)
Protocol: One thousands to 1500 CFU of GAS strain JS95 were spread on the surface of a blood-agar plate, incubated at room temperature and disks with different concentrations of antibiotic (control) or peptide (25, 50 and 200 μg) were placed on the surface. The plates were incubated at 37° C. for 16 hours. Areas with no hemolysis (N. hemo.) indicate inhibition of GAS growth by antibiotics. Area with hemolysis (hemo.) indicates GAS growth in the presence of 200 μg of the peptide.
The inventors next examined whether the 17 amino acid peptide of the invention protects mice challenged with highly virulent strains by inhibition of bacterial growth. Different concentrations (1000-1500 CFU) of GAS strain JS95 were spread on the surface of a blood-agar plate and incubated at room temperature. Disks loaded with different concentrations of antibiotics (control) or peptide (25, 50 and 200 μg) were placed on the surface. […] 178:6087-6090 (1996); Havarstein, et al. J. Bacteriol. 179:6586-6584 (1997)] it is plausible that the peptide acts on a TCS. This in turn activates a signal transduction process in the bacteria leading to attenuation of virulence.

[1] = Neutrophil influx in mice after injection of the peptide alone; assay type: in vivo; conditions: without bacteria
Excerpt: This is in a sharp contrast to the paucity of neutrophil influx in mice challenged with JS95 alone (FIG. 11B). Thus, a rapid recruitment of neutrophils appears necessary to confine GAS infection, subsequently preventing a systemic GAS dissemination.

[2] = system: trypsin-like GAS protease; assay: Degradation of IL-8 by JS95 supernatant (Western blot, ELISA); assay type: biochemical, Group A Streptococcus (GAS); conditions: supernatant of JS95 grown without SilCR, 50 μg/ml SilCR added to the assay; FIG. 14
Protocol: (§1) […] was grown in the absence and presence of SilCR (50 μg/ml). IL-8 was incubated with the indicated supernatant fractions and then subjected to 18% SDS-PAGE. The separated protein bands were electro-transferred to a nitrocellulose membrane. Anti-IL-8 antibody and a secondary antibody conjugated to horseradish peroxidase were used to detect IL-8. The number of the lane represents incubation of IL-8 with: 1, DMEM+FCS (control); 2, JS95 supernatant; 3, JS95 supernatant grown in the presence of SilCR; 4, JS95 supernatant, pretreated with pefabloc SC; 5, supernatant of JS95 grown in the absence of SilCR, then 50 μg/ml of SilCR was added to the degradation assay.
(§2) 15A The column numbers represent the ELISA results after incubation of IL-8 with: 1, DMEM+FCS (control); and the supernatants of: 2, JS95; 3, JS95 grown in the presence of SilCR; 4, JS95 pretreated with aprotenin; 5, JS95 pretreated with soybean trypsin inhibitor; 6, JS95 pretreated with benzamidine. The background of the ELISA assay (0.08±0.004) was subtracted from the shown results. The data represent the mean ± SD, of three separate experiments.
A. Cell culture of JS95 strain was grown in THY to an OD600 of 0.2. To determine the effect of SilCR on chemokine proteolysis, the culture was split into two equal fractions, of which one received SilCR (25 μg/ml). Both fractions were further incubated until they reached an OD600 of 0.3. Bacteria were washed twice with sterile PBS and once with DMEM containing 10% FCS. The washed pellets were re-suspended in DMEM supplemented with FCS to their original volumes. SilCR (50 μg/ml) was added to the fraction that was grown in the presence of SilCR, and the two fractions were further incubated for 1 h at 37° C. Supernatants were collected after centrifugation. The proteolysis reaction contained: 0.08 ml of each supernatant, 100 ng of recombinant human IL-8/CXCL8 (R&D systems, Minneapolis, Minn.) or 30 ng of recombinant murine MIP-2 (R& D systems, Minneapolis, Minn.), 20 mM MOPS pH=7.2 in a final volume of 0.1 ml. The reaction was conducted for 1 h at 37° C., and stopped by boiling for 1 min.
B. For testing protease inhibitors, the supernatants were pre-incubated with the inhibitor for 30 min at 37° C., followed by the proteolysis reaction. The following concentrations of inhibitors were used: 4 mM pefabloc SC; 0.5 mM PMSF; 0.3 μM aprotinin; 1 mM benzamidine; 100 μg/ml soybean trypsin inhibitor (STI).
(§3) C. Proteolysis of chemokines was determined by ELISA and Dot-blot. IL-8 content was quantified by ELISA using the Quantikine kit for determination of human IL-8 (R&D Systems, Minneapolis, Minn.) according to the manufacturer's instructions.

M3 strain = assay: Murine NF model: lesions after challenge with an M3 strain; assay type: in vivo, Group A Streptococcus (GAS); conditions: SilCR injected together with an M3 strain (data not shown)
JS95 = assay: IL-8 proteolytic activity of supernatant of JS95 grown in the presence of SilCR; assay type: cell-based, Group A Streptococcus (GAS); conditions: JS95 grown in the presence of SilCR (25 then 50 μg/ml); FIG. 15A
Protocol: as §1
as §2, with “experiments. […]” for “experiments.”
as §3

GAS M1 strain 340 = assay: Murine NF model: lesions after challenge with M1 strain 340; assay type: in vivo, Group A Streptococcus (GAS); conditions: co-injection of SilCR (50 μg, 90% purified) with 10^8 CFU M1 strain 340; FIG. 16C
Protocol: 16C. mice infected with 10^8 CFU of M1 strain 340+SilCR (50 μg 90% purified) 48 h after inoculation.
The ability of GAS to cause lethal infection in ten-gram BALB/c female mice (Harlan Laboratories, Jerusalem, Israel) was assessed as described before [Ravins, M. et al. J. Infect. Dis. 182:1702-11 (2000)]. Briefly, 10^8 CFU of log-phase bacteria were washed twice in PBS, resuspended in 0.1 ml PBS and injected subcutaneously into the back of a mouse. The number of CFU injected was verified for each experiment by plating bacteria on THY-blood agar plates and counting. Each group contained 8 to 10 mice that were observed daily for death and changes in the lesions' properties such as size and depth, or were sacrificed at different times after inoculation for histopathological assessment. To determine the presence of bacteria in skin and spleen, mice were sacrificed; a wide area surrounding the skin lesions was excised, spleens were removed, and organs were homogenized in 10 or 1 ml of sterile PBS, respectively. Aliquots were plated and streptococcal colonies were counted. The Institutional Ethics Committee for animal care approved all animal procedures (approval number MD 79.17-4).
GAS of M1 and M3 serotypes are commonly associated with invasive disease and NF, and each lack the SilCR gene in their locus. […]

In the case of “DIFKLVIDHISMKARKK (SilCR peptide) [17 amino acid synthetic peptide, predicted mature form of the pheromone peptide encoded by the SilCR ORF; used at 70% or 90% purity]”, the “inhibition of GAS growth” value (GAS strain JS95; THY medium and blood agar plates) is reported as “does not inhibit GAS growth”, the “bacterial growth around disk” value (GAS strain JS95; disks with peptide up to 200 μg on blood-agar plate, 1000-1500 CFU JS95, 37° C. 16 hours, FIG. 10) is reported as “bacterial growth was observed” and the neutrophil influx [1] is reported as “did not stimulate neutrophil recruitment; also recorded: did not induce neutrophil influx”. For the same sequence, the “IL-8 proteolysis with purified peptide added to the degradation assay” value [2] was “did not itself block IL-8 proteolysis”, the lesions (M3 strain) was “reduced lesions” and the “IL-8 proteolytic activity of the strain” value (JS95) was “markedly reduced”. For the same sequence, the “lesion size and duration” value (GAS M1 strain 340) was “significantly reduced size and duration”.
